Reference: patent publication US12465050B2, “Compositions comprising a pyridine carboxylate herbicide and protoporphyrinogen oxidase (protox) inhibitor herbicides” (priority 2018, dated 2025)

What was measured:
Format in all cases: in vivo
[1] = tested on: Brassica napus (spring rape); assay: Greenhouse postemergence herbicidal effect on BRSNN
Text: (§1) Greenhouse Trial Methodology—Evaluation of Postemergence Herbicidal Effect
(§2) Seeds of the desired test plant species were planted in a 90:10% v/v (volume/volume) mixture of PRO-MIX® BX (Premier Tech Horticulture, Quakertown, Pa., USA) and PROFILE® GREENS GRADE™ (Profile Products LLC, Buffalo Grove, Ill., USA) planting mixture, which typically has a pH of 5.2 to 6.2 and an organic matter content of at least 50 percent, in plastic pots with a surface area of 103.2 square centimeters (cm^2). In some aspects or embodiments, to help ensure good germination and healthy plants, a fungicide treatment and/or other chemical or physical treatment was applied. The plants were grown for 7-36 days (d) in a greenhouse with an approximate 14-hour (h) photoperiod which was maintained at about 23° C. during the day and 22° C. during the night. Nutrients and water were added on a regular basis and supplemental lighting was provided with overhead metal halide 1000-Watt lamps as necessary. The plants were employed for testing when they reached the second or third true leaf stage.
(§3) Emulsifiable concentrates of each of each pyridine carboxylate herbicide (Compound A or Compound B) were prepared at 100 grams acid equivalent per liter (g ae/L). The emulsifiable concentrates also included a safener, cloquintocet mexyl, at 120 grams active ingredient per liter (g ai/L). An aliquot of each emulsifiable concentrate was placed in a 25 mL glass vial and diluted with an aqueous mixture of 1.25% (v/v) ACTIROB® B esterified rapeseed oil (Bayer Crop Science, Research Triangle Park, N.C., USA) or MSO® Concentrate with LECI-TECH® methylated soybean oil (Loveland Products, Loveland, Colo., USA) to obtain concentrated stock solutions at the highest application rate for each herbicide, based upon a 12 milliliter (mL) application volume at a rate of 187 liters per hectare (L/ha). The concentrated stock solutions were further diluted with an aqueous mixture of 1.25% v/v ACTIROB® B or MSO® Concentrate with LECI-TECH® to obtain stock solutions at reduced application rates for each herbicide. Spray solutions of the herbicide combinations (Compound A or Compound B plus PROTOX inhibitor herbicide) were prepared by adding weighed amounts or aliquots of the PROTOX inhibitor herbicides to the stock solutions of Compound A or Compound B to form 12-mL spray solutions in two-way combinations.
(§4) The spray solutions were applied to the plant material with an overhead Mandel track sprayer equipped with 8002E nozzles calibrated to deliver 187 L/ha over an application area of 0.503 square meters (m^2) at a spray height of 18 inches (43 centimeters (cm)) above the average plant canopy. Control plants were sprayed in the same manner with the solvent blank. All pyridine carboxylate herbicide (component a) application rates are given as “g ae/ha” and all PROTOX inhibitor herbicide (component b) application rates are given as “g ai/ha.”
(§5) The treated plants and control plants were placed in a greenhouse as described above and watered by sub-irrigation to prevent wash-off of the test compounds. After 20-22 d, the condition of the test plants as compared with that of the control plants was determined visually and scored on a scale of 0 to 100 percent where 0 corresponds to no injury and 100 corresponds to complete kill.

[2] = tested on: Triticum aestivum (spring wheat); assay: Greenhouse postemergence phytotoxicity on crop TRZAS
Text: as §1, §2, §3, §4, §5

[3] = tested on: Chenopodium album L. (common lambsquarters); assay: Greenhouse postemergence herbicidal effect on CHEAL; conditions: Compound A 0, Pyraclonil 42.5 g/ha
Text: as §1, §2, §3, §4, §5

[4] = tested on: Sinapis arvensis (wild mustard); assay: Greenhouse postemergence herbicidal effect on SINAR; conditions: Compound A 0, Pyraclonil 42.5 g/ha
Text: as §1, §2, §3, §4, §5

[5] = tested on: Salsola kali (Russian thistle); assay: Greenhouse postemergence herbicidal effect on SASKR; conditions: Compound A 0, Pyraclonil 42.5 g/ha
Text: as §1, §2, §3, §4, §5

[6] = tested on: Polygonum convolvulus (wild buckwheat); assay: Greenhouse postemergence herbicidal effect on POLCO; conditions: Compound A 0, Pyraclonil 42.5 g/ha
Text: as §1, §2, §3, §4, §5

[7] = tested on: Kochia scoparia (kochia); assay: Greenhouse postemergence herbicidal effect on KCHSC; conditions: Compound A 0, Pyraclonil 42.5 g/ha
Text: as §1, §2, §3, §4, §5

[8] = tested on: Hordeum vulgare (spring barley); assay: Greenhouse postemergence phytotoxicity on crop HORVS; conditions: Compound A 0, Pyraclonil 42.5 g/ha
Text: as §1, §2, §3, §4, §5

[9] = tested on: Amaranthus retroflexus (pigweed); assay: Greenhouse postemergence herbicidal effect on AMARE; conditions: Compound A 0, Saflufenacil 11.2 g/ha
Text: as §1, §2, §3, §4, §5

[10] = tested on: Rumex obtusifolius (broad-leaf dock); assay: Greenhouse postemergence herbicidal effect on RUMOB; conditions: Compound A 0, Saflufenacil 11.2 g/ha
Text: as §1, §2, §3, §4, §5

[11] = tested on: Cyperus esculentus (nutsedge); assay: Greenhouse postemergence herbicidal effect on CYPES; conditions: Compound A 0, Saflufenacil 11.2 g/ha
Text: as §1, §2
(§6) Emulsifiable concentrates of each of each pyridine carboxylate herbicide (Compound A or Compound B) were prepared at 100 grams acid equivalent per liter (g ae/L). The emulsifiable concentrates also included a safener, cloquintocet mexyl, at 120 grams active ingredient per liter (g ai/L). […]
as §5

[12] = tested on: Viola tricolor (wild pansy); assay: Greenhouse postemergence herbicidal effect on VIOTR
Text: as §1, §2, §3, §4, §5

[13] = tested on: Setaria faberi (giant foxtail); assay: Greenhouse postemergence herbicidal effect on SETFA
Text: as §1, §2, §3, §4, §5

[14] = tested on: Zea mays (maize); assay: Greenhouse postemergence phytotoxicity on crop ZEAMX; conditions: Compound A 0, Saflufenacil 11.2 g/ha
Text: as §1, §2, §6, §5

[15] = tested on: Cirsium arvense (Canadian thistle); assay: Greenhouse postemergence herbicidal effect on CIRAR
Text: as §1, §2, §3, §4, §5

[16] = tested on: Sorghum vulgare (sorghum); assay: Greenhouse postemergence herbicidal effect on SORVU; conditions: Compound A 0, Saflufenacil 11.2 g/ha
Text: as §1, §2, §6, §5

[17] = tested on: Abutilon theophrasti (velvetleaf); assay: Greenhouse postemergence herbicidal effect on ABUTH; conditions: Compound A 0, Saflufenacil 11.2 g/ha
Text: as §1, §2, §6, §5

[18] = Compound A 0, Pyraclonil 42.5 g/ha
[19] = Compound A 0, Saflufenacil 11.2 g/ha
[20] = Compound B 0, Saflufenacil 1 g/ha
[21] = Compound B 7.5, Saflufenacil 0 g/ha
[22] = Compound B 10, Saflufenacil 0 g/ha

SMILES: C#CCN(C)c1c(C#N)cnn1-c1nn2c(c1Cl)CCCC2 [Pyraclonil, 1-(3-chloro-4,5,6,7-tetrahydropyrazolo[1,5-a]pyridin-2-yl)-5-[methyl-2-propynylamino]-1H-pyrazole-4-carbonitrile, reference compound]
- % visual injury, Obs [1, 18]: 23%
- % visual injury, Obs [2, 18]: 3%
- % visual injury, Obs [3]: 15%
- % visual injury, Obs [4]: 15%
- % visual injury, Obs [5]: 78%
- % visual injury, Obs [6]: 20%
- % visual injury, Obs [7]: 15%
- % visual injury, Obs [8]: 28%

SMILES: CC(C)N(C)S(=O)(=O)NC(=O)c1cc(-n2c(=O)cc(C(F)(F)F)n(C)c2=O)c(F)cc1Cl [Saflufenacil, 2-chloro-5-[3,6-dihydro-3-methyl-2,6-dioxo-4-(trifluoromethyl)-1(2H)-pyrimidinyl]-4-fluoro-N-[[methyl(1-methylethyl)-amino]sulfonyl]benzamide, reference compound]
- % visual injury, Obs [9]: 100%
- % visual injury, Obs [1, 19]: 90%
- % visual injury, Obs [10]: 100%
- % visual injury, Obs [11]: 28%
- % visual injury, Obs [2, 19]: 10%
- % visual injury, Obs [12, 20]: 55%
- % visual injury, Obs [13, 19]: 53%
- % visual injury, Obs [13, 20]: 13%
- % visual injury, Obs [14]: 45%
- % visual injury, Obs [15, 20]: 80%
- % visual injury, Obs [16]: 33%
- % visual injury, Obs [17]: 98%

SMILES: C#CCOC(=O)c1nc(-c2ccc3cc[nH]c3c2F)c(F)c(N)c1Cl [Compound B, propargyl 4-amino-3-chloro-5-fluoro-6-(7-fluoro-1H-indol-6-yl)pyridine-2-carboxylate]
- % visual injury, Obs [12, 21]: 10%
- % visual injury, Obs [12, 22]: 40%
- % visual injury, Obs [13, 21]: 70%
- % visual injury, Obs [13, 22]: 55%
- % visual injury, Obs [15, 21]: 45%
- % visual injury, Obs [15, 22]: 45%
